Experiments:
[1] = test system: Panc-1, Capan-1, and MiaPaCa-2 human pancreatic cancer cells; test: Soft agar colony formation (anchorage-independent growth); type: cell-based; conditions: range over three PDAC cell lines (Panc-1, Capan-1, Miapaca-2); increasing concentrations
Method: (§1) FIG. 13. Aurothiomalate (ATM) inhibits PDAC cells soft agar colony formation and invasion. A) Dose response curves to the growth inhibitory effects of ATM on soft agar colony formation in Panc-1, Capan-1, and MiaPaCa-2 human pancreatic cancer cells. B) Panc-1 cells were pre-incubated in increasing concentrations of ATM and then assayed for in vitro invasion through Matrigel matrix.
Panc-1 and MiaPaCa-2 cells (5×10^3) were plated in soft agar and assessed for anchorage-independent growth as described elsewhere (Regala et al., J. Biol. Chem., 280:31109-15 (2005)).
(§2) Three PDAC cell lines (Panc-1, Capan-1, and Miapaca-2), expressing varying amounts of PKCι (FIG. 13), were assayed for the ability to form colonies in soft agar (anchorage-independent growth) in the presence of increasing concentrations of aurothiomalate (ATM, FIG. 13A).

[2] = test system: Panc-1 cells; test: In vitro invasion through Matrigel matrix; type: cell-based, human; conditions: 48 hour pre-incubation
Method: as §1, §2

[3] = test system: mPanINs of P48-Cre; LSL-K-rasG12D mice; test: mPanIN proliferation by BrdU incorporation (IHC) in P48-Cre; LSL-K-rasG12D mice; type: in vivo, mouse; conditions: 60 mg/kg/day IP x 10 days, mice 7-9 months old, vs untreated age-matched mice, n=3/group
Method: FIG. 18. ATM inhibits proliferation of mPanINs in P48-Cre; LSL-K-ras^G12D mice. Three older P48-Cre; LSL-K-ras^G12D mice (7-9 months of age) were administered ATM (60 mg/kg/day) by IP injection for 10 days. Mice were injected with BrdU prior to sacrifice. Pancreata were isolated and analyzed by IHC for BrdU incorporation, as an indicator of the proliferative activity of the tissue. BrdU incorporation was compared to untreated, age-matched P48-Cre; LSL-K-ras^G12D mice. n=3/group.
(§3) ATM reduced mPanIN proliferation and SHH expression. In order to investigate the potential therapeutic role of ATM in pancreatic cancer, acute ATM treatment (60 mg/kg/day×10 days) of older P48-Cre; LSL-K-rasG12D mice (PC/+, Ras/+; 7-9 months old, they have already developed PanINs and adenomas) was performed. […] These same mice were analyzed for pancreatic expression of SHH. SHH increased in expression in P48-Cre; LSL-K-rasG12D mice, similar to PKCι.

[4] = test system: SHH expression; test: Pancreatic SHH mRNA expression (qPCR) in P48-Cre; LSL-K-rasG12D mice; type: in vivo, mouse; conditions: 60 mg/kg/day IP x 10 days, mice 7-9 months old, vs untreated age-matched mice, n=1/group
Method: FIG. 19. ATM inhibits induction of SHH expression in mPanINs of P48-Cre; LSL-K-ras^G12D mice. Three older P48-Cre; LSL-K-ras^G12D mice (7-9 months of age) were administered ATM (60 mg/kg/day) by IP injection for 10 days. mRNA was isolated from pancreata from treated, and untreated, age-matched P48-Cre; LSL-K-ras^G12D mice and analyzed by qPCR analysid for expression of SHH. n=1/group.
as §3

O=C(O)CC([S-])C(=O)O.[Au+] (stereo not shown) [ATM, aurothiomalate]
IC50 [1]: 20 to 61 µM | IC50 [2]: 7.4 µM | proliferation in the mPanINs (BrdU incorporation) [3]: significantly reduced | pancreatic SHH expression [4]: significantly reduced

Reference: patent publication US20110190390A1, “METHODS AND MATERIALS FOR TREATING PANCREATIC CANCER” (priority 2010, published 2011)
